What was measured:
Axl = biological target: T1, Axl (Homo sapiens, UniProt P30530); assay: Phospho-Akt in-cell Western assay (inhibition of Axl activity); assay type: cell-based; settings: inhibition of Axl activity, Table 1
T1 construct: endogenous in cells; host or cells: HeLa cells
T1 sequence (P30530 26-894): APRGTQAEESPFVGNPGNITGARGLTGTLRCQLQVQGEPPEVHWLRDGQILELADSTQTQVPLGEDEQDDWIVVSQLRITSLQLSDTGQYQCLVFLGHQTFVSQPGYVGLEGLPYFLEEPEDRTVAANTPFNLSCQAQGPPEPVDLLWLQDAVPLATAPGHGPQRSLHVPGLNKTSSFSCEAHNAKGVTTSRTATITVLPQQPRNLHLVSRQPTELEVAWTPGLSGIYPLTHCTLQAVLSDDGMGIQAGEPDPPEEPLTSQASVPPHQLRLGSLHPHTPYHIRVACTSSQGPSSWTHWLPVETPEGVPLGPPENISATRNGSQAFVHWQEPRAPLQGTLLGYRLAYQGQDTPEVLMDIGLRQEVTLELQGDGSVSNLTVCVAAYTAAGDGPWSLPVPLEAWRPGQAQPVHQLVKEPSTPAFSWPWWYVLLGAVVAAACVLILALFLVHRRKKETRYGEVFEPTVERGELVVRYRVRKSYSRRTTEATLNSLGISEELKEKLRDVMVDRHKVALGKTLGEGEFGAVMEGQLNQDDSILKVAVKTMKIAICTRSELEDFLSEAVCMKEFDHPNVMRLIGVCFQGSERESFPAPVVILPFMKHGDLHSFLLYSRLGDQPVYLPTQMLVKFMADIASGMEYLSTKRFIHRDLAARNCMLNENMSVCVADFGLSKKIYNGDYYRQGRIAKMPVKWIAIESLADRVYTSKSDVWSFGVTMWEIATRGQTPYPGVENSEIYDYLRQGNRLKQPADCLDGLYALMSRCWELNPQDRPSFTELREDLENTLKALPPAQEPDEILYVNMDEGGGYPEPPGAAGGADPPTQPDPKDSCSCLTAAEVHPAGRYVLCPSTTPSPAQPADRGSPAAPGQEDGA
How it was run: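 HeLa cells on poly-L-lysine, starved 24 h in 0.5% FCS DMEM with Axl/Fc 500 ng/mL, pre-treated with compound 1 h at 37° C. Axl stimulated 5 min by anti-Axl/anti-mouse antibody cross-linking. Fixed cells probed with anti-phospho-Akt and HRP secondary, chemiluminescence read.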

For `CC(C)Oc1cccc(C(=O)n2nc(Nc3cccc(O)c3)nc2N)c1` [(Ia-16), 5-amino-3-[3-(hydroxy)phenylamino]-1-(3-(iso-propoxy)phenyl)carbonyl-1H-1,2,4-triazole], the melting point was 211.3 to 214.8 °C and the IC50 (Axl) was 1 to 10 µM.

— US8389557B2, “Triazole derivatives useful as Axl inhibitors” (Rigel Pharmaceuticals, Inc., priority 2005, dated 2013)
